“Also recorded” adds a separate entry of the source.
Key:
Format in all cases: in vivo, mouse
[1] = test system: C57BL6/N female mice with intact ovaries, HFD+TAC; assay: Whole body metabolism (indirect calorimetry) in HFD+TAC female mice with intact ovaries; conditions: females with intact ovaries, HFD + pressure overload
Protocol: (§1) All animals were fed a high fat diet (HFD) consisting of 60% kcal derived from fat was fed to both male and female C57BL6N mice for 3 months. Mice were divided into two groups: 1) Controls with intact ovaries; 2) Ovariectomized (Ovx) mice. Mice were assigned to receive trans-aortic constriction (TAC) or sham surgery after 3 months of HFD, and further randomized to placebo vehicle and PDE9-I (PDE9 inhibitor oral gavage 20 mg/kg twice daily) (FIG. 1). Comparison of Group 1 and 2 tests the efficacy of PDE9-I to ameliorate and/or reverse HFD and pressure-overload pathophysiology independent of sex hormone status.
(§2) Whole body metabolism: Indirect calorimetry was used to assess metabolic parameters in live animals using the OxyMAX Comprehensive Lab Animal Monitoring System (Columbus Instruments, Columbus Ohio). Basic metabolic rate (VO2 consumption), VCO2 release and energy expenditure (EE) were measured by indirect calorimetry in high-fat-fed OVX mice groups treated with (Drug) and without PDE9 inhibitor (Control). Respiratory exchange ratio (RER) was calculated from VCO2 release-to-VO2 consumption ratio (VCO2 release/VO2 consumption). CLAMS cabinet was used to measure oxygen consumption rate at 22° C. (VO2), CO2 emission, respiratory exchange ratio, heat production, food consumption (g consumed per day), and total and ambulatory activity per day.
In a second experiment, we examined the impact of PDE9 inhibition on female mice (C57BL6/N) subjected to HFD+TAC, but without ovariectomy and thus had normal estrogen levels.

[2] = test system: female mice, high fat diet induced obesity plus mild pressure stress; assay: Cardiac disease in obese (HFD) female mice with mild pressure stress on the heart; conditions: females; high fat diet induced obesity and metabolic syndrome + mild pressure stress on the heart
From the text: Our laboratory has studied the impact of PDE9 inhibition on the heart, in particular in male mice subjected to pressure overload stress to induced cardiac hypertrophy, dysfunction, and pathological fibrosis. Over the past 1.5 years, we have turned to females, and in particular added the impact of high fat diet induced obesity and metabolic syndrome. This is then combined with a mild pressure stress on the heart to stimulate production of natriuretic peptides and some hypertrophy of the heart muscle. […] However, there was minimal impact on peripheral body weight, metabolism, or fat mass in these studies.

[3] = test system: OVX+HFD+TAC female mice (C57BL/6N); assay: Fasting blood markers of metabolic syndrome and liver histology in OVX+HFD+TAC female mice; conditions: for hepatic fat accumulation (liver histology): OVX females on HFD, vs no additional therapy; for fasting blood glucose / fasting blood total cholesterol / fasting total blood triglycerides: OVX+HFD+TAC females, end of study
Protocol: as §1
(§3) Female mice (C57BL/6N) were placed on a 60% fat diet starting at age 5-weeks. Two weeks later, there were randomized to receive bilateral oophorectomy or sham surgery. Cardiac imaging for ventricular function and morphometry was determined 2 months later. Between 8-11 weeks after ovariectomy, the mice underwent a second surgical procedure introducing a mild aortic constriction (TAC) in the transverse aorta to increase pressure load on the heart. The purpose of the TAC procedure was to stimulate the heart to synthesize natriuretic peptide, which is important for the generation of cyclic GMP which PDE9 regulates. Serial echocardiograms were obtained, and starting 1 week after TAC, mice were further randomized to receive vehicle control or a PDE9 inhibitor (PF-7943). Intact mouse metabolic studies, fat/lean mass determinations, and heart function were assessed. At terminal study, tissues were harvested for molecular signaling.
Multiple biomarkers of metabolic syndrome and fat accumulation in the liver were improved in OVX+HFD+TAC female mice by PDE9 inhibition (FIG. 8). Data are shown at end-of study for fasting blood glucose, cholesterol, triglycerides, and histology of the liver.

[4] = test system: OVX+HFD+TAC female mice (C57BL/6N); assay: Whole body metabolism by indirect calorimetry (CLAMS metabolic cage) in OVX+HFD+TAC female mice; conditions: OVX+HFD+TAC females, vs vehicle; for oxygen consumption (VO2): normalized to body mass
Protocol: as §1, §2, §3
RER is calculated from VCO2/VO2 ratio. […] Even if fat mass is assumed to contribute only 15% of total metabolic activity relative to lean mass, these differences remain significant (data not shown). […] P values are for unpaired t-tests between groups.

[5] = test system: male HFD+TAC mice; assay: Body weight and body composition in male HFD+TAC mice; conditions: listed as PDE9-inhibitor
Protocol: as §1
Body composition: total fat mass, lean mass, and water content was determined by quantitative nuclear magnetic resonance (Echo-MRI®). In brief, after 20 weeks on the HFD, total body fat and lean body mass were assessed non-invasively by EchoMRI instrument. The analyzer delivers precise body composition measurements of fat, lean, free water, and total water masses in live animals weighing up to 100 grams. Conscious mice were placed in a constraint tube that was then inserted into the EchoMRI for a period of approximately 30 s and these measurements obtained.
In a third experiment, we exposed male mice of a similar starting age (5 weeks) to the same HFD protocol, and then same TAC protocol. […]

[6] = test system: OVX+HFD+TAC female mice (C57BL/6N); assay: Echocardiography of cardiac function and structure in OVX+HFD+TAC female mice; conditions: OVX+HFD+TAC females, vs vehicle; for left ventricular hypertrophy (LV Mass) / ejection fraction (EF) / fractional shortening (FS): serial echo, drug started 1 week after TAC; for left ventricular hypertrophy (LV Mass): oral gavage 20 mg/kg twice daily, 20 mg/kg
Protocol: as §1
Changes in cardiac function and structure were measured using echocardiogram, histopathology and markers of cardiac stress (Nppa Gene expression by RT-qPCR). For qPCR, RNA is isolated from left ventricular myocardium (Trizol Reagent, Invitrogen), reverse transcribed to cDNA (High Capacity RNA-to-cDNA Kit, Applied Biosystems, Life Technologies), and undergoes PCR amplification using TaqMan probes for atrial natriuretic peptide (Nppa) (mouse #Mm01255747_g1, rat #Rn00664637_g1). The threshold cycle value was determined using the crossing point method, and samples normalized to the GAPDH for each run. Echocardiography was performed in conscious mice using serial M-mode transthoracic echocardiography (VisualSonics Vevo 2100, 18-38 MHz transducer; SanoSite Inc.). Images were obtained and analyzed by an individual blinded to the animal condition.
as §3

[7] = test system: male HFD+TAC mice; assay: Whole body metabolism (indirect calorimetry) in male HFD+TAC mice
Protocol: as §1, §2
In a third experiment, we exposed male mice of a similar starting age (5 weeks) to the same HFD protocol, and then same TAC protocol. As before, mice were randomized to either vehicle control or active PDE9-inhibitor starting 1 week after the TAC procedure. FIG. 11.

[8] = end of study, listed as PDE9 inhibitor

## C[C@@H]1CN(Cc2ncccn2)C[C@H]1c1nc2c(cnn2C2CCOCC2)c(=O)[nH]1 [PF 04447943]
[1]
  calculated energy expenditure: do not show any changes
[1]; listed as PDE9-I
  CO2 production: no difference
  overall oxygen consumption: no difference
  respiratory exchange ratio: no difference
[1]; listed as PDE9i
  CO2 production: do not show any changes
  overall oxygen consumption: do not show any changes
  respiratory exchange ratio: do not show any changes
[2]
  cardiac disease: can indeed ameliorate cardiac disease
[3]; listed as PDE9-I
  hepatic fat accumulation (liver histology): markedly reduced
  fasting blood glucose: reduced
  fasting blood total cholesterol: reduced
  fasting total blood triglycerides: reduced
[3]; listed as PDE9 inhibitor
  hepatic fat accumulation (liver histology): marked reduction of fat accumulation in the liver
  fasting blood glucose: reduced towards normal control levels
  fasting blood total cholesterol: reduced towards normal control levels
  fasting total blood triglycerides: reduced towards normal control levels
[4]; listed as PDE9I
  oxygen consumption (VO2): increases total oxygen consumption normalized to body mass
[4]; listed as PDE9 inhibitor
  oxygen consumption (VO2): increases in oxygen consumption
[4]; normalized to total body mass
  carbon dioxide generation (VCO2): increases
[4]
  calculated energy expenditure (heat): increased
  respiratory exchange ratio (RER): not significantly altered
[5]
  total body weight / body mass: only borderline altered; also recorded: trend towards reduced body weight
  total fat mass / body fat: significant reduction in total fat mass; also recorded: decline in body fat
[6]; end of study
  cardiac output: restoration towards normal control values
  ejection fraction: restoration towards normal control values
  ventricular end-diastolic volume (Volume, d): restoration towards normal control values
  ventricular end-systolic volume (Volume, s): restoration towards normal control values
[6]; [8]
  early to late atrial (E/A) filling: restored; also recorded: restoration towards normal control values
  isovolumic ventricular relaxation time (IVRT): restored; also recorded: restoration towards normal control values
[6]
  left ventricular hypertrophy (LV Mass): reduced left ventricular hypertrophy
  ejection fraction (EF): greater
  fractional shortening (FS): greater fractional shortening
[6]; listed as PDE9 inhibitor
  left ventricular hypertrophy (LV Mass): reduced LV mass
  ejection fraction (EF): improved FS and EF
  fractional shortening (FS): improved FS
[7]
  CO2 generation: did not display consistent changes
  RER: did not display consistent changes
[7]; listed as PDE9-inhibitor
  energy expenditure (heat generation): did not demonstrate increases; also recorded: did not display consistent changes
  oxygen consumption (metabolic rate): did not demonstrate increases; also recorded: did not display consistent changes

From patent US20210386743A1, “USE OF PDE9 INHIBITORS FOR TREATMENT” (The Johns Hopkins University, priority 2018, published 2021)
